Assay results as given in patent US8138196B2, “Antifungal wallboards and building materials and methods for the production thereof” (Syngenta Crop Protection, Inc., priority 2005, dated 2012).
Several values for one entry are separate records, joined by “and”; a condition that tells them apart may be missing. Equal entries are not always repeated.

What was measured:
Assay type in all cases: cell-based
[1] = test system: Aureobasidium pullulans (ATCC 15233); assay: Example 3 liquid culture assay on 24 well plates, solo and 2-way mixtures
Text: (§1) Alternaria tenuissima (DSM 63360), Penicillium chrysogenum (DSM 895), Stachybotrys chartarum (DSM2144), Aspergillus niger (DSM 63263), Aspergillus versicolor (DSM 1943) and Aureobasidium pullulans (ATCC 15233) were separately cultivated on PDA media to […] sporulation. Spore suspensions were produced for each fungi. Spore concentrations of approx. 100.000 spores/ml were used.
(§2) Test method used: liquid culture assay on 24 well plates.
(§3) For solo (i.e. single) ai testing the formulated fungicide (100 ul) was filled into the 24 well plates and 100 ul distilled water was added. Afterwards 800 ul of 0.3% AE media was added to the plate. The spore suspension of the specific fungi was added to this media in advance containing approx. 100,000 spores/ml. The 24 well plates were sealed and incubated at 24° C.
(§4) Dependent on the growth properties of each organisms, the evaluation was done after 3 to 6 days, when the surface of the check well was covered with mycelium. The evaluation was performed by assessing the growth of the fungi related to the check growth. The results are expressed as % activity relative to the check (values of 0-100% growth). Afterwards the results were converted in % O growth inhibition.
(§5) For synergism testing of the 2-way mixtures 100 ul of each fungicide were filled into 24 well plates and 800 ul of 0.3% AE media containing the spore suspension was added. Different ratios of the 2 fungicide rates were tested at the same time.
(§6) For the mixtures of different fungicides the synergism was calculated based on the Colby equation, which is described below: […]
(§7) The fungicidal action to be expected, We, for a given combination of two fungicides can be calculated as follows (see COLBY, S. R. “Calculating synergistic and antagonistic response of herbicide combinations”. Weeds 15, pages 20-22; 1967): We=X+[Y×(100−X)/100] wherein: • X=% activity in the case of treatment with the compound of formula I at rate x, in comparison with untreated control (=0%). • Y=% activity in the case of treatment with a compound of formula II at rate y, in comparison with untreated control. • We=expected activity (% activity in comparison with untreated control) after treatment with the compound of formula I and a compound of formula II at a rate of x+y kg of active ingredient.
(§8) If the activity actually observed is greater than the expected value We (factor observed activity/expected activity >1.2), there is a synergistic effect.

[2] = test system: Alternaria tenuissima (DSM 63360); assay: as above
Text: as §1, §2, §3, §4, §5, §6, §7, §8

[3] = test system: Aspergillus niger (DSM 63263); assay: as above; details: test 006-2005
Text: as §1, §2, §3, §4, §5, §6, §7, §8

[4] = test system: Aspergillus versicolor (DSM 1943); assay: as above; details: test 006-2005; rate (FDL) 0.05 mg ai/l
Text: as §1, §2, §3, §4, §5, §6, §7, §8

[5] = test system: Penicillium chrysogenum (DSM 895); assay: as above; details: test 006-2005
Text: as §1, §2, §3, §4, §5, §6, §7, §8

[6] = test system: Alternaria tenuissima (DSM 63360); assay: Example 4 liquid culture assay on 24 and 48 well plates, 3 way mixtures; details: A. tenuissima
Text: as §1, with “For test 006-2005: Alternaria” for “Alternaria”, “Cladosporium cladosporoides (DSM62121),” for “Stachybotrys chartarum (DSM2144),”, “fungus.” for “fungi.”, “100,000” for “100.000”
(§9) […] Spore suspensions were produced for each fungus. Spore concentrations of approx. 100,000 spores/ml were used.
(§10) Test method used: liquid culture assay on 24 and 48 well plates respectively.
(§11) For testing of the 3 way mixtures each of the formulated fungicide (100 ul) was filled into the 24 and 48 well plates respectively. Afterwards 700 ul of 0.3% AE media was added to the plate. The spore suspension of the specific fungi was added to this media in advance containing approx. 100,000 spores/ml. For testing the solo compounds the equivalent of distilled water was added instead of the formulated fungicide volume of the mixing partners. The plates were then sealed and incubated at 24° C.
as §4, with “%” for “% O”
(§12) For the mixtures of different fungicides the synergism was calculated based on the Colby equation, which is described above.

[7] = test system: Aspergillus niger (DSM 63263); assay: as above; details: A. niger
Text: as §1, with “For test 006-2005: Alternaria” for “Alternaria”, “Cladosporium cladosporoides (DSM62121),” for “Stachybotrys chartarum (DSM2144),”, “fungus.” for “fungi.”, “100,000” for “100.000”
For test 015-2006: Alternaria tenuissima (DSM 63360), Penicillium pinophilum (CBS342.61), Gliocladium virens (DSM1963), Aspergillus niger (DSM 63263), Stachybotrys chartarum (DSM 2144) and Aureobasidium pullulans (ATCC 15233) were separately cultivated on PDA media to […] sporulation. Spore suspensions were produced for each fungus. Spore concentrations of approx. 100,000 spores/ml were used.
as §10, §11
as §4, with “%” for “% O”
as §12

[8] = test system: Aspergillus versicolor (DSM 1943); assay: as above; details: test 006-2005, A. versicolor
Text: as §1, with “For test 006-2005: Alternaria” for “Alternaria”, “Cladosporium cladosporoides (DSM62121),” for “Stachybotrys chartarum (DSM2144),”, “fungus.” for “fungi.”, “100,000” for “100.000”
as §10, §11
as §4, with “%” for “% O”
as §12

[9] = test system: Stachybotrys chartarum (DSM 2144); assay: as above; details: test 015-2005, S. chartarum
Experimental: as §9, §10, §11
as §4, with “%” for “% O”
as §12

Coniophora puteana = assay: radial mycelial growth on fungicide amended agar; details: estimated from graph of % activity (radial mycelial growth relative to agar without fungicide) against concentration
Experimental: Stem cultures of Coniophora puteana were produced by propagating the fungus on a growth medium comprising yeast extract (10 g), glycerol (20 ml), magnesium sulphate (0.5 g), sodium nitrate (6.0 g), potassium chloride (0.5 g), potassium dihydrogen orthophosphate (1.5 g), agar (20 g) in distilled water (980 ml).
Fungicides were added at levels of 5000, 100, 10, 1, 0.1 and 0.01 mg fungicide/litre of growth medium (described above) to give […] different growth medium compositions for each fungicide. Mycelial plugs were taken from the stem cultures and transferred upside down onto petri dishes containing the fungicide amended agar.
The radial mycelial growth of the fungus was measured individually on all test petri dishes. The results are expressed as % activity relative to the radial growth on agar without fungicide.
For each fungicide, a graph was drawn of percentage activity against concentration of fungicide in the growth medium. From this graph, the concentrations of fungicide required to achieve 80% activity was estimated. These figures are given in the results table.

[10] = test system: Stachybotrys chartarum (DSM2144); assay: Example 3 liquid culture assay on 24 well plates, solo and 2-way mixtures; details: test 006-2005
Text: as §1, §2, §3, §4, §5, §6, §7, §8

SMILES: CC1COC(Cn2cncn2)(c2ccc(Oc3ccc(Cl)cc3)cc2Cl)O1 (centres unmarked) [Difenoconazole]
- inh % (DFZ alone) ([1]; test 006-2005, rate (DFZ) 3.12 mg ai/l): 70%

SMILES: N#Cc1c[nH]cc1-c1cccc2c1OC(F)(F)O2 [Fludioxonil]
- inh % (FDL alone) ([2]; test 006-2005, rate (FDL) 0.2 mg ai/l): 70%
- inh % (FDL alone) ([2]; test 015-2005, rate (FDL) 0.2 mg ai/l): 30%
- inh % (FDL alone) ([2]; test 015-2005, rate (FDL) 0.4 mg ai/l): 30%
- inh % (FDL alone) ([2]; test 015-2005, rate (FDL) 0.8 mg ai/l): 30%
- inh % (FDL alone) ([2]; test 015-2005, rate (FDL) 1.6 mg ai/l): 50%
- inh % (FDL alone) ([2]; test 015-2005, rate (FDL) 3.1 mg ai/l): 50%
- inh % (FDL alone) ([2]; test 015-2005, rate (FDL) 6.25 mg ai/l): 50%
- inh % (FDL alone) ([2]; test 015-2005, rate (FDL) 12.5 mg ai/l): 70%
- inh % (FDL alone) ([2]; test 015-2005, rate (FDL) 25 mg ai/l): 70%
- inh % (FDL alone) ([2]; test 015-2005, rate (FDL) 50 mg ai/l): 70%
- inh % (FDL alone) ([2]; test 015-2005, rate (FDL) 100 mg ai/l): 70%
- inh % (FDL alone) ([2]; test 015-2005, rate (FDL) 200 mg ai/l): 50%
- inh % (FDL alone) ([3]; rate (FDL) 0.2 mg ai/l): 50%
- inh % (FDL alone) ([3]; rate (FDL) 0.8 mg ai/l): 70%
- inh % (FDL alone) ([3]; rate (FDL) 1.6 mg ai/l): 70%
- inh % (FDL alone) ([3]; rate (FDL) 3.12 mg ai/l): 70%
- inh % (FDL alone) ([3]; rate (FDL) 12.5 mg ai/l): 70%
- inh % (FDL alone) [4]: 10%
- inh % (FDL alone) ([5]; rate (FDL) 0.05 mg ai/l): 0%
- inh % (FDL alone) ([5]; rate (FDL) 0.2 mg ai/l): 50%
- inh % (FDL alone) ([6]; test 006-2005, FDL 0.2 mg ai/l): 50%
- inh % (FDL alone) ([6]; test 006-2005, FDL 0.8 mg ai/l): 70%
- inh % (FDL alone) ([6]; test 006-2005, FDL 1.6 mg ai/l): 70%
- inh % (FDL alone) ([6]; test 015-2005, FDL 0.8 mg ai/l): 50%
- inh % (FDL alone) ([6]; test 015-2005, FDL 1.6 mg ai/l): 50%
- inh % (FDL alone) ([7]; test 006-2005, FDL 0.8 mg ai/l): 50%
- inh % (FDL alone) ([7]; test 015-2005, FDL 0.8 mg ai/l): 50%
- inh % (FDL alone) ([7]; test 015-2005, FDL 1.6 mg ai/l): 50%
- inh % (FDL alone) ([7]; test 015-2005, FDL 3.1 mg ai/l): 50%
- inh % (FDL alone) ([8]; FDL 0.2 mg ai/l): 0%
- inh % (FDL alone) ([8]; FDL 0.8 mg ai/l): 0%
- inh % (FDL alone) ([8]; FDL 1.6 mg ai/l): 0%
- inh % (FDL alone) ([9]; FDL 0.05 mg ai/l): 10%
- inh % (FDL alone) ([9]; FDL 0.2 mg ai/l): 50%

SMILES: CCCC1COC(Cn2cncn2)(c2ccc(Cl)cc2Cl)O1 (centres unmarked) [Propiconazole]
- Concentration required for 80% Activity (Coniophora puteana): 1.8 mg/L
- inh % (PPZ alone) ([1]; test 006-2005, rate (PPZ) 1.6 mg ai/l): 70%
- inh % (PPZ alone) ([1]; test 006-2005, rate (PPZ) 3.12 mg ai/l): 70%
- inh % (PPZ alone) ([1]; test 006-2005, rate (PPZ) 12.5 mg ai/l): 70%
- inh % (PPZ alone) ([1]; test 015-2005, rate (PPZ) 25 mg ai/l): 50%
- inh % (PPZ alone) ([1]; test 015-2005, rate (PPZ) 50 mg ai/l): 70%
- inh % (PPZ alone) ([10]; rate (PPZ) 0.8 mg ai/l): 0%
- inh % (PPZ alone) ([10]; rate (PPZ) 1.6 mg ai/l): 10%
- inh % (PPZ alone) ([10]; rate (PPZ) 3.12 mg ai/l): 10%

SMILES: c1ccc2[nH]c(-c3cscn3)nc2c1 [Thiabendazole]
- Concentration required for 80% Activity (Coniophora puteana): >5000 mg/L
- inh % (TBZ alone) ([2]; test 015-2005, rate (TBZ) 12.5 mg ai/l): 0%
- inh % (TBZ alone) ([2]; test 015-2005, rate (TBZ) 25 mg ai/l): 0%
- inh % (TBZ alone) ([2]; test 015-2005, rate (TBZ) 50 mg ai/l): 0%
- inh % (TBZ alone) ([2]; test 015-2005, rate (TBZ) 100 mg ai/l): 0%
- inh % (TBZ alone) ([2]; test 015-2005, rate (TBZ) 200 mg ai/l): 0%
- inh % (TBZ alone) ([6]; test 006-2005, TBZ 0.2 mg ai/l): 0%
- inh % (TBZ alone) ([6]; test 006-2005, TBZ 0.8 mg ai/l): 0%
- inh % (TBZ alone) ([6]; test 006-2005, TBZ 1.6 mg ai/l): 0%
- inh % (TBZ alone) ([6]; test 015-2005, TBZ 0.2 mg ai/l): 0%
- inh % (TBZ alone) ([6]; test 015-2005, TBZ 1.6 mg ai/l): 0%
- inh % (TBZ alone) ([6]; test 015-2005, TBZ 3.1 mg ai/l): 0%
- inh % (TBZ alone) ([6]; test 015-2005, TBZ 6.25 mg ai/l): 0%
- inh % (TBZ alone) ([6]; test 015-2005, TBZ 25 mg ai/l): 0%
- inh % (TBZ alone) ([6]; test 015-2005, TBZ 100 mg ai/l): 0%
- inh % (TBZ alone) ([7]; test 006-2005, TBZ 0.8 mg ai/l): 0%
- inh % (TBZ alone) ([7]; test 015-2005, TBZ 0.2 mg ai/l): 0%
- inh % (TBZ alone) ([7]; test 015-2005, TBZ 0.8 mg ai/l): 0%
- inh % (TBZ alone) ([8]; TBZ 0.2 mg ai/l): 0%
- inh % (TBZ alone) ([8]; TBZ 0.8 mg ai/l): 0%
- inh % (TBZ alone) ([8]; TBZ 1.6 mg ai/l): 10%
- inh % (TBZ alone) ([9]; TBZ 3.1 mg ai/l, listed as TBZ): 0% and 10%
- inh % (TBZ alone) ([9]; TBZ 6.25 mg ai/l): 10%
- inh % (TBZ alone) ([9]; TBZ 25 mg ai/l): 30%
